The target in experiment [1] is Serine/threonine-protein kinase PLK3 (Homo sapiens, UniProt Q9H4B4). The experiment is described as follows: Selectivity interaction (KinomeScan (DiscoverX)) EUB0001619a PLK3. The following applies: at 1 µM.
Experiment [2] addresses T1, Tyrosine-protein kinase JAK3 (Homo sapiens) (UniProt P52333).
T1 sequence (whole entry): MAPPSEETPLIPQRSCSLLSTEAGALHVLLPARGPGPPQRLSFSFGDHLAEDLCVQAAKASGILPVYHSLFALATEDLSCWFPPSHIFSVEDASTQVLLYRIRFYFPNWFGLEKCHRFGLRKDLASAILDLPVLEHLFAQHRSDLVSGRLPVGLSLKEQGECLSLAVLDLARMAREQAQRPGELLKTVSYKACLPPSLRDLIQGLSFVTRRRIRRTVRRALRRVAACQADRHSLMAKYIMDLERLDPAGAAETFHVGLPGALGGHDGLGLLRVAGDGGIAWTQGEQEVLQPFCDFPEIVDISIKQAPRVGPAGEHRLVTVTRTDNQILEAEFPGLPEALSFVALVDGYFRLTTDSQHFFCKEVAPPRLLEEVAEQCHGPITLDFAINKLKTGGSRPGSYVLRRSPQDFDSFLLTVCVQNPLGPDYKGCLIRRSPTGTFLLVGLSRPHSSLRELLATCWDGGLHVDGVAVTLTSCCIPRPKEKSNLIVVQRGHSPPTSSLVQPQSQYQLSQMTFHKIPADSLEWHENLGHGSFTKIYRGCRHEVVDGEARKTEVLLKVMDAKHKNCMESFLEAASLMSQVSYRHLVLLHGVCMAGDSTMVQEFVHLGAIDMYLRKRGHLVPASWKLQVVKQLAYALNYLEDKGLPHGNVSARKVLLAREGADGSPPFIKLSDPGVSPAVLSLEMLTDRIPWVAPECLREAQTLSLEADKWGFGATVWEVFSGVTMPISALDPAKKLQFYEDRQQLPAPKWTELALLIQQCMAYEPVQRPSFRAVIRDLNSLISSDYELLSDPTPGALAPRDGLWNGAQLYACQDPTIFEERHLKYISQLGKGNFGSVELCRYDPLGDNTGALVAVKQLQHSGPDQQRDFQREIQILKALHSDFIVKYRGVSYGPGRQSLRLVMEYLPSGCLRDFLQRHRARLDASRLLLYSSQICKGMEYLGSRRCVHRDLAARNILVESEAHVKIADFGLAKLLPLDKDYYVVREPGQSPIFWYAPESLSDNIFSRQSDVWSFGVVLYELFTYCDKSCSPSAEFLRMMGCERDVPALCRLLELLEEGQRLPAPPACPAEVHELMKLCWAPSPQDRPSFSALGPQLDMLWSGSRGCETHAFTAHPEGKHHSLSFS
In words: Selectivity interaction (ActivX KiNativ screen (ex vivo kinase selectivity in human PBMCs)) EUB0001619a JAK3. In kind it is cell-based. The settings on record: PBMC, at 1 µM.

Experiment [3] addresses Proto-oncogene tyrosine-protein kinase ROS (Homo sapiens) (UniProt P08922). The experiment is described as follows: Selectivity interaction (KinomeScan (DiscoverX)) EUB0001619a ROS1. The settings on record: at 1 µM.
Experiment [4] has as its target TGF-beta receptor type-2 (Homo sapiens) (UniProt P37173). The following applies: at 10 µM.
Experiment [5] has as its target Macrophage-stimulating protein receptor (Homo sapiens, UniProt Q04912). In words: Selectivity interaction (KinomeScan (DiscoverX)) EUB0000666a MST1R. The following applies: at 10 µM.
Experiment [6] addresses Tyrosine-protein kinase JAK2 (Homo sapiens, UniProt O60674). In words: Selectivity interaction (Kinase panel (Invitrogen)) EUB0000639a JAK2. The following applies: at 200 nM.
Experiment [7] concerns the target Serine/threonine-protein kinase PAK 3 (Homo sapiens) (UniProt O75914). The experiment is described as follows: Selectivity interaction (Kinase panel (Invitrogen)) EUB0000639a PAK3. The following applies: at 200 nM.
For another experiment, the target named is SRSF protein kinase 1 (Homo sapiens, UniProt Q96SB4). The experiment is described as follows: Selectivity interaction (Kinase panel (DSF assay)) EUB0001559a SRPK1. (DSF heats the sample and reads unfolding from a dye or from intrinsic fluorescence.)
Sequence of SRSF protein kinase 1 (Q96SB4 whole entry): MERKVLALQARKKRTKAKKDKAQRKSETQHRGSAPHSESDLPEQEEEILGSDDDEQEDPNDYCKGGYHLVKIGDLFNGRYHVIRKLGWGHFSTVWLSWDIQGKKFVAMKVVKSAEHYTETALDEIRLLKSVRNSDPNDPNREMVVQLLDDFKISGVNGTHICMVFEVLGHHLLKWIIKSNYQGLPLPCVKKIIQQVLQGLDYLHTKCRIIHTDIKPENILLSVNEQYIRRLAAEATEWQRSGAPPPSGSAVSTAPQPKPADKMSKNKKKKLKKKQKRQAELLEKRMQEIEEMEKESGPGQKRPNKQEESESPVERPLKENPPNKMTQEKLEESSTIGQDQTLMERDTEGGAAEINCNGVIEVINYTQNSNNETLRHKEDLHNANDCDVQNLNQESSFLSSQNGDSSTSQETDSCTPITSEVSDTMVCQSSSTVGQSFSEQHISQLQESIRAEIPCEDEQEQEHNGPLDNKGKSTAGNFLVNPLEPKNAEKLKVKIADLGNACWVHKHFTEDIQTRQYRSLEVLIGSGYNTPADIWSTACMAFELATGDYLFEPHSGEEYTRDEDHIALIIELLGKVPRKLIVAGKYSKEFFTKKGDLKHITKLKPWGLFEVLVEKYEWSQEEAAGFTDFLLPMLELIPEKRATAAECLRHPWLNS
The target of experiment [8] is T2, Serine/threonine-protein kinase DCLK3 (Homo sapiens) (UniProt Q9C098).
T2 sequence (whole entry): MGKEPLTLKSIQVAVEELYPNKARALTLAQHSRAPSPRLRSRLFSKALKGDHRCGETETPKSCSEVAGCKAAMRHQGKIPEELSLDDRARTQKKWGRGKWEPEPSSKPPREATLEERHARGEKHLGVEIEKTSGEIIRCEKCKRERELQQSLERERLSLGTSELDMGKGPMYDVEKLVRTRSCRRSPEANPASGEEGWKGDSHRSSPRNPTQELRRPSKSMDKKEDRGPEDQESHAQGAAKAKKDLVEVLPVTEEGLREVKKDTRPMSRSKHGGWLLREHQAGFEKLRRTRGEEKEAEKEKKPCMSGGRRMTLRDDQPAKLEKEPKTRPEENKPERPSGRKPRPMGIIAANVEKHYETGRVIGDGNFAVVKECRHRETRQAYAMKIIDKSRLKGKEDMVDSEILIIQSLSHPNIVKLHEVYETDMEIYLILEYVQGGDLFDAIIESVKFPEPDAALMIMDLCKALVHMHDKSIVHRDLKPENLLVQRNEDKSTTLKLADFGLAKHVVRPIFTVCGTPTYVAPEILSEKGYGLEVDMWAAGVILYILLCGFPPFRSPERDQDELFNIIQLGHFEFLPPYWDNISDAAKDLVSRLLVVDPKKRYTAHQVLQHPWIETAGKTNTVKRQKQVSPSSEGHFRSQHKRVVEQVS
The experiment is described as follows: Selectivity interaction (Ambit KINOMEscan and KiNATiv profiling in Jurkat cells) EUB0000090b DCLK3. The settings on record: at 1 µM. The format is cell-based.

Experiment [9] has as its target MAP/microtubule affinity-regulating kinase 3 (Homo sapiens) (UniProt P27448). The experiment is described as follows: Selectivity interaction (Kinase panel (Carna Biosciences)) EUB0001542aTs MARK3. The following applies: at 1 µM.
Experiment [10] deals with Serine/threonine-protein kinase 35 (Homo sapiens) (UniProt Q8TDR2). In words: Selectivity interaction (KinomeScan (DiscoverX)) EUB0000618a STK35. The settings on record: at 10 µM.
Sequence of Serine/threonine-protein kinase 35 (Homo sapiens) (Q8TDR2 whole entry): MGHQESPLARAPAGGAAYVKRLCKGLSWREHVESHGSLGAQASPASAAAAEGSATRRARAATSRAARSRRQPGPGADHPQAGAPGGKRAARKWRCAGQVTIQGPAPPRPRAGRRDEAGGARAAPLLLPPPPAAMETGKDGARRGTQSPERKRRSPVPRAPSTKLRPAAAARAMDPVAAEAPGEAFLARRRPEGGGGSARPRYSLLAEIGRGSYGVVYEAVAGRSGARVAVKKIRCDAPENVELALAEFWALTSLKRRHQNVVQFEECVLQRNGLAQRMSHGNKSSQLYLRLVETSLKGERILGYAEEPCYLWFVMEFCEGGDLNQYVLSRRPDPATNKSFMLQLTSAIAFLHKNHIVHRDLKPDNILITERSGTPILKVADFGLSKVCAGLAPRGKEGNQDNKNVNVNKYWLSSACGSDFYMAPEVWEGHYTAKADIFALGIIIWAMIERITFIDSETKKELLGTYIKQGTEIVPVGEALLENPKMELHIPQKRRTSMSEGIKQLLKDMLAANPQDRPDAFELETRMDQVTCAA
The target in experiment [11] is Cholecystokinin receptor type A (Homo sapiens) (UniProt P32238). The experiment is described as follows: Selectivity interaction (Panel of non-epigenetic targets (kinases, GPCRs, ion channels, and transporters, Eurofins) ) EUB0000271b CCKAR. The settings on record: at 1 µM.
Sequence of Cholecystokinin receptor type A (Homo sapiens) (P32238 whole entry): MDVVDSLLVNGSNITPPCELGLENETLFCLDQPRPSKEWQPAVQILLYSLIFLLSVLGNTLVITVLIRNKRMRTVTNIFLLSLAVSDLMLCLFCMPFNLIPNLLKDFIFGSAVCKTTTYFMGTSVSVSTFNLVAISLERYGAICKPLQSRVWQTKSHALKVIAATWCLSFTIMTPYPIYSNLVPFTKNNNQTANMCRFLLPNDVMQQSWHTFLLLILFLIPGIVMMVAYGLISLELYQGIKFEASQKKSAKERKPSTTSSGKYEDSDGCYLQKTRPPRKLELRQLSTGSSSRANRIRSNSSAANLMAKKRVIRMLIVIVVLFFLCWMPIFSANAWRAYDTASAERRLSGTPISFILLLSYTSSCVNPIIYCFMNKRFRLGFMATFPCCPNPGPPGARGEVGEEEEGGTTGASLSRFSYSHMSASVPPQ
Experiment [12] concerns the target Bone morphogenetic protein receptor type-1A (Homo sapiens, UniProt P36894). In words: Selectivity interaction (KinomeScan (DiscoverX)) EUB0000229b BMPR1A. The following applies: at 10 µM.

10 molecules from ChEMBL document CHEMBL5465560, “Selectivity Literature for EUbOPEN Chemogenomic Library” (2024) can be followed below.

Sequence of MAP/microtubule affinity-regulating kinase 3 (Homo sapiens) (P27448 whole entry, looked up): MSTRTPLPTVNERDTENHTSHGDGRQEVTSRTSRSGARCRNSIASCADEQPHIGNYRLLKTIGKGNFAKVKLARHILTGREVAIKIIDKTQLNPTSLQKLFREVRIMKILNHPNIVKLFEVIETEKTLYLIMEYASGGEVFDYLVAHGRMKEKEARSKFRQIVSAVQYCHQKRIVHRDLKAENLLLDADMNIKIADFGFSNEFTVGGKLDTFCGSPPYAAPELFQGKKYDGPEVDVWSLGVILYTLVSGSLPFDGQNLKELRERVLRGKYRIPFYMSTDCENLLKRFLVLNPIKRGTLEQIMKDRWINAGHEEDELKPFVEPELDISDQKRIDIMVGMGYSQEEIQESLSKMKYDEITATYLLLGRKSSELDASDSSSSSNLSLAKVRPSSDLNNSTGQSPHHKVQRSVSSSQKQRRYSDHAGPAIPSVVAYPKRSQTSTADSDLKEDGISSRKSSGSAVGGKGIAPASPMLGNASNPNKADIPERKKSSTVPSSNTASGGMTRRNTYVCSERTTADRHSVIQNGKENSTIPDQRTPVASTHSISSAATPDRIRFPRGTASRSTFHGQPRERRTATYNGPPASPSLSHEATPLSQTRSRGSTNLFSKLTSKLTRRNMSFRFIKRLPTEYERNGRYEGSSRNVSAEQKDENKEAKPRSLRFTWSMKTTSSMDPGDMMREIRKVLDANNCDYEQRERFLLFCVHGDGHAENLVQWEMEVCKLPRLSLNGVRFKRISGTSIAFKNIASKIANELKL
Sequence of Serine/threonine-protein kinase PLK3 (Q9H4B4 whole entry, looked up): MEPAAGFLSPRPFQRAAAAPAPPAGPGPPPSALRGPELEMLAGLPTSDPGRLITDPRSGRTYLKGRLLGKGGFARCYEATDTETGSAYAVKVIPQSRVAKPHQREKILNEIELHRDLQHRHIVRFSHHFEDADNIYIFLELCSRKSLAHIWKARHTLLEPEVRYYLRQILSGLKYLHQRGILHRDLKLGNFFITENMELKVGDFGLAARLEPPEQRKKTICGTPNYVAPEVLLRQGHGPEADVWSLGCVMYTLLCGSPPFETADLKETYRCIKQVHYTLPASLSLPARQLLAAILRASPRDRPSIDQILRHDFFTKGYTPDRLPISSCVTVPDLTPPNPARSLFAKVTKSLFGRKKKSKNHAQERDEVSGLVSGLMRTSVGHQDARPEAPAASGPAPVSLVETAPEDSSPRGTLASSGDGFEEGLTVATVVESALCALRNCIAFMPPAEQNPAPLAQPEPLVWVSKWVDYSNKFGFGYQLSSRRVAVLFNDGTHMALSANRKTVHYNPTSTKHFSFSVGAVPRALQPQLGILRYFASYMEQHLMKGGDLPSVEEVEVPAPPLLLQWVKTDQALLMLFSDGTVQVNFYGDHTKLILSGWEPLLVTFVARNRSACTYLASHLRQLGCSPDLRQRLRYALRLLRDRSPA
Sequence of Macrophage-stimulating protein receptor (Q04912 25-304 limits assumed): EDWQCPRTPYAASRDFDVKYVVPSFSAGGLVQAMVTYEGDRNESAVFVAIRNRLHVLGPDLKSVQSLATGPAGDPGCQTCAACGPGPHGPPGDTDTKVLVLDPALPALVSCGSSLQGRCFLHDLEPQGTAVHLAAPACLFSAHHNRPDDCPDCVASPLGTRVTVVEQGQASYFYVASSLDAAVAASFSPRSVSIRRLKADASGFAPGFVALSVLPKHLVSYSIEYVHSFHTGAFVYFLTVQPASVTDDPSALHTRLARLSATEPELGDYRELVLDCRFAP
Sequence of Macrophage-stimulating protein receptor (Q04912 310-1400 limits assumed): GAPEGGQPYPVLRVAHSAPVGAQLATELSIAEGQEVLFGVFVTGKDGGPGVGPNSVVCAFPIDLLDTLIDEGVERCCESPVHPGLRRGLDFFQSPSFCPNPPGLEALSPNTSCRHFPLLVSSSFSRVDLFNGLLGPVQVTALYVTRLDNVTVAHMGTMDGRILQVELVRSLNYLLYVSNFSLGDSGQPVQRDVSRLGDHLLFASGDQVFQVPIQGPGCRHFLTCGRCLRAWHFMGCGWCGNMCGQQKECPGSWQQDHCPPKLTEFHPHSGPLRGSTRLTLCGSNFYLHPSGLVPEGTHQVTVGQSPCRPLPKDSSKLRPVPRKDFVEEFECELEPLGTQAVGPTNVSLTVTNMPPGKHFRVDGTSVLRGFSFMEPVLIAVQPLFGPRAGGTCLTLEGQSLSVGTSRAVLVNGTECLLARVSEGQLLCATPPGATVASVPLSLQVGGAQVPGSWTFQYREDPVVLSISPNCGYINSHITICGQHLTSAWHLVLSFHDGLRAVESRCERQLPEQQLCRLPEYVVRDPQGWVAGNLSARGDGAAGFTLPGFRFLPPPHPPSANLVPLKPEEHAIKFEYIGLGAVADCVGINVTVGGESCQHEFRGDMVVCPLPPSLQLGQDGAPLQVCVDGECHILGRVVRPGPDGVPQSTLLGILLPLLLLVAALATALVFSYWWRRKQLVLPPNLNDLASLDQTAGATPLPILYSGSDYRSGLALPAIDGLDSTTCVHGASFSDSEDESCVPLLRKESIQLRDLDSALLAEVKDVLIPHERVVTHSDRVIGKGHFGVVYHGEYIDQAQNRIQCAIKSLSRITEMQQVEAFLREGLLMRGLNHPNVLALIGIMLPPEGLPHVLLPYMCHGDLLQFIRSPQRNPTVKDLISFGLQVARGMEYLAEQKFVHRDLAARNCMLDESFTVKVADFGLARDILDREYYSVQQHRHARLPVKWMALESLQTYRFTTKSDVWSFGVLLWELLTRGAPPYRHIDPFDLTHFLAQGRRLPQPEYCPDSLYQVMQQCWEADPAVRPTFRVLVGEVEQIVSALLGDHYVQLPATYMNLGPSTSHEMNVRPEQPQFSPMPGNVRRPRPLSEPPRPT
Sequence of TGF-beta receptor type-2 (Homo sapiens) (P37173 whole entry): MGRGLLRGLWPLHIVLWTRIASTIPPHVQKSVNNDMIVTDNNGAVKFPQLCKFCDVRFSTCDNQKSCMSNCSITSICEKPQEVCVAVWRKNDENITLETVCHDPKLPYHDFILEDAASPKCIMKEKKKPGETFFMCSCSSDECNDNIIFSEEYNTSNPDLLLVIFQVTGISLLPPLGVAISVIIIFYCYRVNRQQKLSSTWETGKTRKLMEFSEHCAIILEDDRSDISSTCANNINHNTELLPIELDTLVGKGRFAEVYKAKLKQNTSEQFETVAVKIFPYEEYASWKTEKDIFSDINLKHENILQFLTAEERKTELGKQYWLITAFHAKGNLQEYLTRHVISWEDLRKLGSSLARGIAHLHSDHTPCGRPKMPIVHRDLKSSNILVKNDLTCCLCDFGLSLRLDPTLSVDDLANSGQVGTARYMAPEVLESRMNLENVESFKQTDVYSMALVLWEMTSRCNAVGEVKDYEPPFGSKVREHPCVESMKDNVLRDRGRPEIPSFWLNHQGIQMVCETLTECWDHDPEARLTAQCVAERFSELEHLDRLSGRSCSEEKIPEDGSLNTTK

Consider `N#Cc1cccc(-c2c[nH]c3ncnc(N4CCOCC4)c23)c1`, for which the % of control in experiment [1] turned out to be 100%; in experiment [3] it was 90%. This molecule also returned a % of inhibition in experiment [2] of 6%.

As to `CCN(CC)CCCCNc1ncc2cc(-c3cc(OC)cc(OC)c3)c(NC(=O)NC(C)(C)C)nc2n1`, in experiment [4], the % of control stood at 100%.

Molecule `O=C(NOC[C@H](O)CO)c1ccc(F)c(F)c1Nc1ccc(I)cc1F` showed a % of control in [5] of 78%.

Regarding `CC[C@@H]1[C@H](F)C(=O)N[C@@H]1COc1nccc2cc(C(N)=O)c(OC)cc12` [ZIMLOVISERTIB], the % of inhibition in [6] is 12.5%; in experiment [7] it was 0.439%.

Take `CN(C(=O)c1cnn2cccnc12)c1cc2c(cc1N1CCOCC1)C(=O)N(C[C@@H](F)C(C)(C)O)C2`: at SRSF protein kinase 1, the dTM was 0.2 K.

As for `CN(C)C/C=C/C(=O)Nc1ccc(C(=O)N2CCCC(Nc3ncc(Cl)c(-c4c[nH]c5ccccc45)n3)C2)cc1` (stereo not drawn), the % of control in experiment [8] was 76%.

Turning to `Cn1cc(Nc2nccc(N3CC4CCC(C3)N4C(=O)[C@@H]3CC3(F)F)n2)cn1`, the % of inhibition in [9] was found to be 50%.

Consider `O[C@H]1CC[C@H](Nc2ncc3nc(Nc4c(F)cc(F)cc4F)n([C@H]4CCOC4)c3n2)CC1`, for which, in experiment [10], the % of control was 100%.

In experiment [11], `Cc1cc(C)cc([C@@H]2c3cc(C)ccc3NC(=O)CN2C(=O)c2ccc(Br)s2)c1` had a % of inhibition of 1%.

For `COc1cc(N(C)c2ccnc3ccc(C(F)(F)F)cc23)cc(OC)c1OC`, the % binding in [12] turned out to be 76%.
